Reference: patent US20190010158A1, “ANTITUMOR EFFECT POTENTIATOR COMPRISING PYRROLOPYRIMIDINE COMPOUND” (TAIHO PHARMACEUTICAL CO., LTD, priority 2015, published 2019)
Values joined by “and” are separate entries in the source; they are usually repeats but may differ in a detail not shown here. Identical values can stand only once. Like-named read-outs stand apart in the source and are kept apart here.

What was measured:
[1] = tested on: tumor cell lines shown in Table 24; assay: Example 2: combined use with tyrosine kinase inhibitor, cell growth inhibition test (IC50 ratio, CI); format: cell-based; conditions: for Comprehensive Evaluation: combined use with Reference Example Compound 55
[2] = tested on: human acute T lymphoblastic leukemia CCRF-CEM cell lines; assay: Cell growth inhibition 1 (CellTiter-Glo); format: cell-based; conditions: culture with test compound 72 hours
[3] = SNU-16, Reference Example Compound 55:other compound 1:3.3, at ED50
[4] = SNU-16, Reference Example Compound 55:other compound 1:10, at ED50

With Cc1cc(Nc2ncnc3ccc(NC4=NC(C)(C)CO4)cc23)ccc1Oc1ccn2ncnc2c1 [ARRY380] the CI ([1]; A431, Reference Example Compound 55:other compound 1:36 (only ratio calculated), at ED50) was 0.34 and the “Comprehensive Evaluation” value ([1]; A431) was “Synergism (0.3-0.7)”.

For CN(C)C/C=C/C(=O)Nc1cc2c(Nc3ccc(F)c(Cl)c3)ncnc2cc1O[C@H]1CCOC1 [Afatinib, afatinib], the CI ([1]; A549, Reference Example Compound 55:other compound 1:1.7, at ED50) was 0.70, the CI ([1]; A549, Reference Example Compound 55:other compound 1:5, at ED50) was 0.48 and the “Comprehensive Evaluation” value ([1]; A549) was “Synergism (0.3-0.7)”.

In the case of CCc1cc2c(cc1N1CCC(N3CCOCC3)CC1)C(C)(C)c1[nH]c3cc(C#N)ccc3c1C2=O [Alectinib, alectinib], the CI ([1]; MM.1S, Reference Example Compound 55:other compound 1:3000, at ED50) is reported as 0.58, the CI ([1]; MM.1S, Reference Example Compound 55:other compound 1:9000, at ED50) is reported as 0.59 and the “Comprehensive Evaluation” value ([1]; MM.1S) is reported as “Synergism (0.3-0.7)”.

For CC1(COc2ccc3c(c2)ncn3-c2ccc3cccc(N4CCC(N)CC4)c3n2)COC1 [Crenolanib, crenolanib], the CI ([1]; MV4-11, Reference Example Compound 55:other compound 1:3.7, at ED50) was 0.91, the CI ([1]; MV4-11, Reference Example Compound 55:other compound 1:11, at ED50) was 0.83 and the “Comprehensive Evaluation” value ([1]; MV4-11) was “Additive (0.9-1.10)”.

C[C@@H](Oc1cc(-c2cnn(C3CCNCC3)c2)cnc1N)c1c(Cl)ccc(F)c1Cl [Crizotinib, crizotinib] was tested, and the CI ([1]; MM.1S, Reference Example Compound 55:other compound 1:37, at ED50) was 0.87, the CI ([1]; MM.1S, Reference Example Compound 55:other compound 1:111, at ED50) was 0.74 and the “Comprehensive Evaluation” value ([1]; MM.1S) was “Slight”.

With Cc1nc(Nc2ncc(C(=O)Nc3c(C)cccc3Cl)s2)cc(N2CCN(CCO)CC2)n1 [Dasatinib, dasatinib] the CI ([1]; HCT116, Reference Example Compound 55:other compound 1:300, at ED50) was 0.83, the CI ([1]; HCT116, Reference Example Compound 55:other compound 1:900, at ED50) was 0.96 and the “Comprehensive Evaluation” value ([1]; HCT116) was “Additive (0.9-1.10)”.

In the case of C#Cc1cccc(Nc2ncnc3cc(OCCOC)c(OCCOC)cc23)c1 [Erlotinib, erlotinib], the CI [1] is reported as 0.45, the CI ([1]; A549, Reference Example Compound 55:other compound 1:10, at ED50) is reported as 0.54 and the “Comprehensive Evaluation” value ([1]; A549) is reported as “Synergism (0.3-0.7)”.

With COc1cc2ncnc(Nc3ccc(F)c(Cl)c3)c2cc1OCCCN1CCOCC1 [Gefitinib, gefitinib] the CI ([1]; A431, Reference Example Compound 55:other compound 1:5, at ED50) was 0.33, the CI ([1]; A431, Reference Example Compound 55:other compound 1:15, at ED50) was 0.32 and the “Comprehensive Evaluation” value ([1]; A431) was “Synergism (0.3-0.7)”.

In the case of Cc1ccc(NC(=O)c2ccc(CN3CCN(C)CC3)cc2)cc1Nc1nccc(-c2cccnc2)n1 [Imatinib, imatinib], the CI [1] is reported as 0.31 and 0.35 and the “Comprehensive Evaluation” value ([1]; A549) is reported as “Synergism (0.3-0.7)”.

In the case of CS(=O)(=O)CCNCc1ccc(-c2ccc3ncnc(Nc4ccc(OCc5cccc(F)c5)c(Cl)c4)c3c2)o1 [Lapatinib, lapatinib], the CI ([1]; A431, Reference Example Compound 55:other compound 1:10, at ED50) is reported as 0.15, the CI ([1]; A431, Reference Example Compound 55:other compound 1:30, at ED50) is reported as 0.19 and the “Comprehensive Evaluation” value ([1]; A431) is reported as “Strong”.

COc1cc2nccc(Oc3ccc(NC(=O)NC4CC4)c(Cl)c3)c2cc1C(N)=O [Lenvatinib, lenvatinib] was tested, and the CI [1, 3] was 0.44, the CI [1, 4] was 0.63 and the “Comprehensive Evaluation” value ([1]; SNU-16) was “Synergism (0.3-0.7)”.

Cc1ccc(NC(=O)c2ccc(CN3CCN(C)CC3)cc2)cc1Nc1nc(-c2cccnc2)cs1 [Masitinib, masitinib] was tested, and the CI ([1]; MOLT-4, Reference Example Compound 55:other compound 1:33, at ED50) was 0.31, the CI ([1]; MOLT-4, Reference Example Compound 55:other compound 1:100, at ED50) was 0.20 and the “Comprehensive Evaluation” value ([1]; MOLT-4) was “Synergism (0.3-0.7)”.

C=CC(=O)Nc1cc(Nc2nccc(-c3cn(C)c4ccccc34)n2)c(OC)cc1N(C)CCN(C)C [Osimertinib, osimertinib] was tested, and the CI ([1]; NCI-H1975, Reference Example Compound 55:other compound 1:0.01, at ED50) was 0.96, the CI ([1]; NCI-H1975, Reference Example Compound 55:other compound 1:0.03, at ED50) was 0.99 and the “Comprehensive Evaluation” value ([1]; NCI-H1975) was “Additive (0.9-1.10)”.

Cc1ccc(Nc2nccc(N(C)c3ccc4c(C)n(C)nc4c3)n2)cc1S(N)(=O)=O [Pazopanib, pazopanib] showed a CI ([1]; SNU-16, Reference Example Compound 55:other compound 1:30, at ED50) of 0.71 and a CI ([1]; SNU-16, Reference Example Compound 55:other compound 1:90, at ED50) of 0.52.

Cc1ccc(C(=O)Nc2ccc(CN3CCN(C)CC3)c(C(F)(F)F)c2)cc1C#Cc1cnc2cccnn12 [Ponatinib, ponatinib] was tested, and the CI [1] was 0.46 and 0.36.

With CC(C)(C)c1cc(NC(=O)Nc2ccc(-c3cn4c(n3)sc3cc(OCCN5CCOCC5)ccc34)cc2)no1 [Quizartinib, quizartinib] the CI ([1]; MOLT-4, Reference Example Compound 55:other compound 1:111, at ED50) was 0.39, the CI ([1]; MOLT-4, Reference Example Compound 55:other compound 1:333, at ED50) was 0.44 and the “Comprehensive Evaluation” value ([1]; MOLT-4) was “Synergism (0.3-0.7)”.

In the case of Nc1ncnc2c1c(C#CCc1c(F)cccc1F)cn2[C@@H]1O[C@H](CNS(N)(=O)=O)[C@@H](O)[C@H]1O [Reference Example 31, 4-Amino-5-[3-(2,6-difluorophenyl)prop-1-ynyl]-7-[(2R,3R,4S,5R)-3,4-dihydroxy-5-[(sulfamoylamino)methyl]tetrahydrofuran-2-yl]pyrrolo[2,3-d]pyrimidine], the IC50 [2] is reported as 600 nM.

Work on Nc1ncnc2c1c(C#Cc1c(F)cc(NCCO)cc1F)cn2[C@@H]1O[C@H](CNS(N)(=O)=O)[C@@H](O)[C@H]1O [Reference Example 32, 4-Amino-5-[2-[2,6-difluoro-4-(2-hydroxyethylamino)phenyl]ethynyl]-7-[(2R,3R,4S,5R)-3,4-dihydroxy-5-[(sulfamoylamino)methyl]tetrahydrofuran-2-yl]pyrrolo[2,3-d]pyrimidine] yielded an IC50 [2] of 2500 nM.

Work on CCOc1cc(N2CCOCC2)cc(F)c1C#Cc1cn([C@@H]2O[C@H](CNS(N)(=O)=O)[C@@H](O)[C@H]2O)c2ncnc(N)c12 [Reference Example 34, 4-[4-[2-[4-Amino-7-[(2R,3R,4S,5R)-3,4-dihydroxy-5-[(sulfamoylamino)methyl]tetrahydrofuran-2-yl]pyrrolo[2,3-d]pyrimidin-5-yl]ethynyl]-3-ethoxy-5-fluoro-phenyl]morpholine] yielded an IC50 [2] of 6.1 nM.

With CCOc1cc(F)cc(F)c1C#Cc1cn([C@@H]2O[C@H](CNS(N)(=O)=O)[C@@H](O)[C@H]2O)c2ncnc(N)c12 [Reference Example 35, 4-Amino-7-[(2R,3R,4S,5R)-3,4-dihydroxy-5-[(sulfamoylamino)methyl]tetrahydrofuran-2-yl]-5-[2-(2-ethoxy-4,6-difluoro-phenyl)ethynyl]pyrrolo[2,3-d]pyrimidine] the IC50 [2] was 2 nM.

Work on Nc1ncnc2c1c(C#CCc1ccccc1F)cn2[C@@H]1O[C@H](CNS(N)(=O)=O)[C@@H](O)[C@H]1O [Reference Example 36, 4-Amino-7-[(2R,3R,4S,5R)-3,4-dihydroxy-5-[(sulfamoylamino)methyl]tetrahydrofuran-2-yl]-5-[3-(2-fluorophenyl)prop-1-ynyl]pyrrolo[2,3-d]pyrimidine] yielded an IC50 [2] of 250 nM.

Nc1ncnc2c1c(C#Cc1c(F)cc(N3CCSCC3)cc1F)cn2[C@@H]1O[C@H](CNS(N)(=O)=O)[C@@H](O)[C@H]1O [Reference Example 37, 4-[4-[2-[4-Amino-7-[(2R,3R,4S,5R)-3,4-dihydroxy-5-[(sulfamoylamino)methyl]tetrahydrofuran-2-yl]pyrrolo[2,3-d]pyrimidin-5-yl]ethynyl]-3,5-difluoro-phenyl]thiomorpholine] showed an IC50 [2] of 6 nM.

With Nc1ncnc2c1c(C#Cc1c(F)cc(N3CCCC(O)C3)cc1F)cn2[C@@H]1O[C@H](CNS(N)(=O)=O)[C@@H](O)[C@H]1O (stereo partly drawn) [Reference Example 38, 4-Amino-5-[2-[2,6-difluoro-4-(3-hydroxy-1-piperidyl)phenyl]ethynyl]-7-[(2R,3R,4S,5R)-3,4-dihydroxy-5-[(sulfamoylamino)methyl]tetrahydrofuran-2-yl]pyrrolo[2,3-d]pyrimidine] the IC50 [2] was 14 nM.

Nc1ncnc2c1c(C#Cc1c(F)cc(N3CCC3)cc1F)cn2[C@@H]1O[C@H](CNS(N)(=O)=O)[C@@H](O)[C@H]1O [Reference Example 43, 4-amino-5-[2-[4-(azetidin-1-yl)-2,6-difluoro-phenyl]ethynyl]-7-[(2R,3R,4S,5R)-3,4-dihydroxy-5-[(sulfamoylamino)methyl]tetrahydrofuran-2-yl]pyrrolo[2,3-d]pyrimidine] gave an IC50 [2] of 2.7 nM.

CCCOc1cccc(F)c1C#Cc1cn([C@@H]2O[C@H](CNS(N)(=O)=O)[C@@H](O)[C@H]2O)c2ncnc(N)c12 [Reference Example 60, 4-Amino-7-[(2R,3R,4S,5R)-3,4-dihydroxy-5-[(sulfamoylamino)methyl]tetrahydrofuran-2-yl]-5-[2-(2-fluoro-6-propoxy-phenyl)ethynyl]pyrrolo[2,3-d]pyrimidine] showed an IC50 [2] of 5.1 nM.

For CCSc1cccc(F)c1C#Cc1cn([C@@H]2O[C@H](CNS(N)(=O)=O)[C@@H](O)[C@H]2O)c2ncnc(N)c12 [Reference Example 66, 4-Amino-7-[(2R,3R,4S,5R)-3,4-dihydroxy-5-[(sulfamoylamino)methyl]tetrahydrofuran-2-yl]-5-[2-(2-ethylsulfanyl-6-fluoro-phenyl)ethynyl]pyrrolo[2,3-d]pyrimidine], the IC50 [2] was 4.3 nM.

With CNC(=O)c1cc(Oc2ccc(NC(=O)Nc3ccc(Cl)c(C(F)(F)F)c3)c(F)c2)ccn1 [Regorafenib, regorafenib] the CI ([1]; SNU-16, Reference Example Compound 55:other compound 1:15, at ED50) was 0.88, the CI ([1]; SNU-16, Reference Example Compound 55:other compound 1:45, at ED50) was 1.06 and the “Comprehensive Evaluation” value ([1]; SNU-16) was “Additive (0.9-1.10)”.

In the case of N#CC[C@H](C1CCCC1)n1cc(-c2ncnc3[nH]ccc23)cn1 [Ruxolitinib, ruxolitinib], the CI [1] is reported as 0.82.

With CCN(CC)CCNC(=O)c1c(C)[nH]c(/C=C2\C(=O)Nc3ccc(F)cc32)c1C [Sunitinib, sunitinib] the CI [1, 3] was 0.86, the CI [1, 4] was 0.91 and the “Comprehensive Evaluation” value ([1]; SNU-16) was “Additive (0.9-1.10)”.
